Measured values: patent publication US6566397B2, “Acyclic isoprenoid ether derivatives as chemotherapeutics” (Wisconsin Alumni Research Foundation, priority 2000, dated 2003)
Read-outs that look alike come from different tables or passages of the source.

Key:
[1] = system: Murine B16 F10 melanoma cells; test: Growth of murine B16 F10 melanoma cells in monolayer culture, viable cell count by hemocytometer, photomicrographs; type: cell-based; settings: for apoptosis: 5 μmol/L, B16 melanoma cells, photomicrographs; for IC50: read-out: IC50, inhibition of net increase in cell count
Experimental: Murine B16 F10 melanoma cells (He, L., et al., supra, 1997) were grown in monolayer culture (35×10 mm tissue culture dishes) in 3 ml RPMI 1640 medium (Sigma Biosciences, St. Louis, Mo.) supplemented with 10% fetal bovine serum (FBS, Sigma Biosciences) and 2% penicillin/streptomycin (Penicillin-Streptomycin Liquid, 1×10^7 units penicilin and 1×10^7 μg streptomycin/L of 0.85% saline, GIBCO BRL, Grand Island, N.Y.). Cultures, seeded with 3.3×10^4 cells/mL, were incubated for 24 hours at 37° C. in a humidified atmosphere of 5% CO2. The medium was decanted and replaced with fresh medium containing the test agents and incubations were continued for 48 hours. M363 and M364 were dissolved in ethanol, and lovastatin (Mevinolin, Sigma) in chloroform. […] The medium and detached (apoptotic) cells were decanted, the monolayer was washed twice with Hanks' Balanced Salt Solution (HBSS, Sigma Biosciences) and then incubated with a trypsin-EDTA solution (Sigma Biosciences) at 37° C. for 2 minutes. Trypsin was inactivated by suspending the cells in medium containing 10% FBS. The trypsinized cells were harvested by centrifugation (250×g) and re-suspended in HBSS. Viable cells, cells that excluded 0.4% trypan blue (GIBCO BRL), were counted with a hemocytometer; 0-time (24-h) cell counts were deducted from final cell counts to provide an estimate of the net increase in cell number.
Photomicrographs (100×, 200× and 400×) of representative fields of cultures of B16 melanoma cells were made with a Labopot-2 microscope (Nikon, Japan) equipped with a SenSys digital camera (Photometrics Tucson, Ariz.) and image-acquisition software (MetaMorph Imaging Systems, Universal Imaging Corporation, West Chester, Pa.).
(§1) The IC50 value represents the concentration of an isoprenoid required to inhibit the net increase in cell count by 50% at a time point within the linear growth period plotted for control cells. We determined the IC50 value by plotting cell number against isoprenoid concentration.

[2] = system: Human HL-60 acute promyelocytic leukemia cells; test: Growth of human HL-60 leukemia cells in suspension culture, viable cell count by hemocytometer; type: cell-based; settings: human HL-60 promyelocytic leukemia cells, 24 hours; read-out: IC50, inhibition of net increase in cell count
Experimental: Human HL-60 acute promyelocytic leukemia cells (CCL-240, ATCC) were grown in suspension culture (25 cm^2 flasks) in 8 mL RPMI 1640 medium with 20% FBS and 2% penicillin/streptomycin. Cultures, seeded with 1.25×10^8 cells/L, were incubated with test agents for 24 hours at 37° C. in a humidified atmosphere of 5% CO2. The cells were then collected by centrifugation (250×g) and re-suspended in HBSS. Viable cells, cells that excluded 0.4% trypan blue, were counted with a hemocytometer; 0-time (seeding) cell counts were deducted from final cell counts to provide an estimate of the net increase in cell number.
as §1

[3] = Screening of acyclic isoprenoid esters for tumor-suppressive activity in vitro; type: cell-based
Text: (§2) We synthesized and tested a series of esters formed between acyclic isoprenoid alcohols (geraniol, farnesol, nerol, citronellol) and diverse acids (proprionate, isobutyrate, formate, butyrate, caprylate, isovalerate, benzoate, tiglate, anthranilate). […] See Mo, et al. Cancer Letters 157:145-153, 2000 (incorporated by reference).

[4] = system: Murine B16(F10) melanoma cells; test: CellTiter 96 Aqueous One Solution Cell Proliferation Assay; type: cell-based; settings: 40 hour growth of B16 melanoma cells, 1000 cells/well; read-out: IC50, net absorbance at 490 nm
Experimental: Murine B16(F10) melanoma cells were grown in monolayer culture (96-well tissue culture plate, Fisher Scientific) in 0.1 mL of RPMI 1640 medium (Sigma) supplemented with 10% fetal bovine serum (Sigma) and 80 mg/L of gentamycin (Sigma). Cultures were seeded in triplicate (0 to 2450 cells/well with an increment of 350 cells) and incubated for 24 hours or 64 hours at 37° C. in a humidified atmosphere of 5% CO2. At 24 hours the medium was decanted from each well and replaced with fresh medium. Cell populations of all wells were determined at either 24 hours (0 time, 3 wells) or 64 hours (40 hours, all other wells) by adding 20 μl of CellTiter 96® Aqueous One Solution (Promega, Madison, Wis.) to each well; the plate was held in dart at 37° C. for 2 hours and then read at 490 nm with a SPECTRAmax® 190 multi-plate reader with SOFTmax® PRO (Molecular Devices, Sunnyvale, Calif.). The net absorbance, the difference between the 0 time and 40 hours values, plotted on cell inoculation density is linear to 2000 cells/well (FIG. 6). We then applied this optical method to the estimation of the IC50 for M364.
Plates seeded with 1000 cells/well, the midpoint of cell inoculation density (FIG. 6), were cultured as described above. The medium added at 24 hours (0 time) to experimental wells contained 0-10 μmol/L M364 ([4-(3,7,11-trimethyl-2,6,10-dodecatrienyloxy]-phenyl acetate).

[5] = system: murine B16 melanoma cells
[6] = M364 dietary toxicity study in mice; type: in vivo, C57BL6 female mice
Experimental: M364 toxicity and efficacy studies are in progress. Weanling C57BL6 female mice (Harlan Sprague Dawley, Madison, Wis.) are housed in groups of five to six on Cellu-Dri bedding (Waldschmidt & Sons, Inc., Madison, Wis.) in stainless steel cages and maintained at 25° C. with a 12-hour light:dark cycle. Three groups of mice (11/group) are being fed AIN-93G diet supplemented with 0 (A, control), 1 (B) and 10 (C) mmol M364/kg diet. Food intakes for mice are recorded daily and mice are weighed on alternate days. Results to date are mixed. […] As a consequence, the body weight of these mice decreased from 13.6 to 11.7 g; on removing the agent (M364) from the diet the mice rapidly regained body weight.

implanted B16 melanomas [7] = test: Growth of implanted B16 melanomas, agent in diet; type: in vivo
Text: as §2
We note that the farnesyl moiety of the test agent comprised trans, trans and cis, trans isomers. […] The prospect of a chemotherapeutic application of […] is dimmed by findings that its very potent tumor-suppressive action is markedly attenuated by […], an essential dietary constituent (Qureshi, A., et al., J. Nutr. 126:389-394, 1996).

implanted B16 melanomas [8] = settings: cited from earlier work
[9] = system: pancreatic tumors implanted in Syrian Golden hamsters; settings: 90 mmol/kg diet; cited from earlier work
[10] = murine melanoma B16 cells, 48 hours, hemocytometer

## CC(=O)Oc1ccc(OCC=C(C)CCC=C(C)C)cc1 [M363, [4-(3,7-dimethyl-2,6-octadienyloxy]-phenyl acetate]
[1]
  apoptosis: initiated apoptosis
[1]; [10]
  IC50: 5.1 ± 0.8 µM
[2]
  IC50: 58.6 ± 2.3 µM

## C/C=C(\C)C(=O)OC/C=C(\C)CCC=C(C)C [geranyl tiglate]
[3]
  tumor-suppressive activity in vitro: significant tumor-suppressive activity

## CC(=O)Oc1ccc(OCC=C(C)CCC=C(C)CCC=C(C)C)cc1 [M364, [4-(3,7,11-trimethyl-2,6,10-dodecatrienyloxy]-phenyl acetate]
[1]
  apoptosis: initiated apoptosis
[1]; M364 1 μmol/L, B16 cells
  suppression of cell growth: 45%
[1]; [10]
  IC50: 2 ± 0.6 µM
[2]
  IC50: 4.9 ± 3.7 µM
[4]
  IC50: 2.2 µM
[5]; M364 1 μmol/L
  increase in proportion of cells in G1: 33%
[6]; 1 mmol M364/kg diet
  body weight and general appearance: match the controls
[6]; 10 mmol M364/kg diet
  general condition of mice: remained healthy and active
[6]; 10 mmol M364/kg diet, 6 day exposure
  food intake: decreased
[6]; 10 mmol M364/kg diet, 6 day exposure, decreased from 13.6 g, regained on removing agent
  body weight after exposure to diet: 11.7 g

## CC(C)=CCCC(C)=CCCC(C)=CCOC(=O)c1ccccc1N [farnesyl anthranilate]
[1]; 100 μmol/L, B16 cells, 400× photomicrograph FIG. 4F
  morphological changes of cells: morphological changes similar to those attained with 10 μmol M364
[1]; Mus musculus, 48 h
  IC50: 45 ± 6 µM
[2]
  IC50: 80 ± 10 µM
Implanted B16 melanomas [7]; 1.5 mmol/kg diet
  growth of implanted B16 melanomas: substantially suppressed the growth
Implanted B16 melanomas [7]; dietary α-tocopherol
  effect of dietary α-tocopherol on the agent's action: did not compromise
[3]
  tumor-suppressive activity in vitro: significant tumor-suppressive activity

## CC(C)=CCC/C(C)=C/COC(=O)c1ccccc1 [geranyl benzoate]
[3]
  tumor-suppressive activity in vitro: significant tumor-suppressive activity

## C/C=C(\C)C(=O)OCC=C(C)CCC=C(C)CCC=C(C)C [farnesyl tiglate]
[3]
  tumor-suppressive activity in vitro: significant tumor-suppressive activity

## CC(C)=CCC/C(C)=C/CC/C(C)=C/CC[C@]1(C)CCc2cc(O)c(C)c(C)c2O1 [γ-tocotrienol]
Implanted B16 melanomas [8]; 0.116 mmol/kg diet
  growth of implanted B16 melanomas: suppressed the growth
Implanted B16 melanomas [8]; <1 mmol/kg diet
  efficacy in suppressing growth of implanted melanomas relative to farnesol: ~100 ×

## CC(C)=CCCC(C)=CCCC(C)=CCOC(=O)c1ccccc1 [farnesyl benzoate]
[3]
  tumor-suppressive activity in vitro: significant tumor-suppressive activity

## CC(C)=CCC/C(C)=C/COC(=O)c1ccccc1N [geranyl anthranilate]
[3]
  tumor-suppressive activity in vitro: significant tumor-suppressive activity

## CC[C@H](C)C(=O)O[C@H]1C[C@@H](C)C=C2C=C[C@H](C)[C@H](CC[C@@H]3C[C@@H](O)CC(=O)O3)[C@H]21 [lovastatin]
[1]; lovastatin 0.75 μmol/L, B16 cells
  suppression of cell growth: 25%
[5]; lovastatin 0.75 μmol/L
  increase in portion of cells in G1: 33%

## CC(C)=CCCC(C)=CCCC(C)=CCO [farnesol]
[9]
  growth of implanted pancreatic tumors: suppressed the growth
